The results in this text go back to patent US20250135042A1, “Perfluorocarbon-Containing Contrast Agent for Use in MRI Imaging of Body Cavities” (University of Pittsburgh - Of the Commonwealth System of …, priority 2023, published 2025).

Data set [1] is described as follows: Stokes-Einstein radius. It is filed as physicochemical.
The nature of data set [2]: 1H relaxivity of serial two-fold dilutions in tubes, from T1 weighted images. It is filed as physicochemical. Conditions: 7 Tesla, 37° C. The procedure:
FIGS. 2A and 2B: Graphical plots and T1 weighted images of individual tubes containing serial two-fold dilutions of Gadobutrol without ≥10% w/v PFC emulsion (FIG. 2A) or with ≥10% w/v PFC emulsion (FIG. 2B) display that ≥10% PFC emulsion diminishes the ^1H relaxivity of Gadobutrol from 3.95 L/mmol/s (FIG. 2A) to 2.05 L/mmol/s (FIG. 2B) at 7 Tesla scanner. T1 relaxation rate of water protons (R1=1/T1) was calculated from the slope of the line plotted by computing T1 relaxation time from T1 weighted images acquired at identical magnetic field strength of 7 Tesla at 37° C.
While gadolinium chelates are characterized by longitudinal and transverse relaxivity, denoted r1 and r2, respectively, (sensitivity to improve image contrast) gadolinium chelates are generally referred to as T1 agents owing to their larger effect on tissue T1 than on T2 for positive image contrast in T1-weighted images.

For `O=C([O-])CN1CCN(CC(=O)[O-])CCN([C@H](CO)[C@H](O)CO)CCN(CC(=O)[O-])CC1.[Gd+3]` (racemic) [Gadobutrol, gadobutrol], the “Stokes-Einstein radius (median for the emulsion particles)” value in data set [1] turned out to be 0.4 nm. In addition, the figures for the “1H relaxivity of Gadobutrol” value in data set [2] (with ≥10% w/v PFC emulsion) and in data set [2] (without ≥10% w/v PFC emulsion) were 2.05 L/mmol/s and 3.95 L/mmol/s, respectively.
